The results in this text go back to patent US10125183B2, “Decoy peptides inhibiting binding of AMIGO2 and 3-phosphoinositide-dependent kinase 1” (Curacle Co., Ltd., priority 2015, dated 2018).

The test system of one test is AMIGO2. The experiment in a line: In vivo siRNA injection and analysis of hyaloid vessels and retinas. Set-up: species or system mouse. Here is the method:
The sequence 5′-[…]-3′ (SEQ ID NO: 28) (mouse AMIGO2 siRNA, Dharmacon) was mixed with the TransIT®-QR Starter Kit (Mirus), and subcutaneously injected to each mouse (5 μg/P3.5 mouse) (Behlke, 2006; Bonifazi et al., 2010; Inaba et al., 2012; Mammoto et al., 2009). Hyaloid vessels and retinas were prepared as previously described (Lobov et al., 2005). After 2 days, the differences of protein change, retina, and hyaloid vessels were analyzed.

A further test addresses T1, PH domain of PDK1 (Homo sapiens, UniProt O15530).
T1 construct: the purified His-tagged PH domain proteins were incubated with Ni^2+-NTA resins; made in house; host or cells: Escherichia coli BL21
T1 sequence (O15530 409-556): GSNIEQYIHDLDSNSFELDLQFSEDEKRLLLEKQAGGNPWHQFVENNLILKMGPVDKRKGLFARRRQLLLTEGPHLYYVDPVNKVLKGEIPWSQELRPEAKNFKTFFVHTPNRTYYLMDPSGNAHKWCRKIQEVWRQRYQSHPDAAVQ
Kind of test: Pull-down assay and Far-western analysis of truncated AMIGO2 CD mutants. Type of test: binding. To be noted: purified GST-tagged proteins. On the procedure: GST-CD, 420-484, 420-474, 420-464 and 420-454 were prepared with vector plasmids of pGEX 4T1 and pET32a followed by the preparation of His-PH.BamH1 (5′-[…]-3′) (SEQ ID NO: 29) and Xho1 (5′-[…]-3′ (SEQ ID NO: 30), CD; 5′-[…]-3′ (SEQ ID NO: 31), 420-484; 5′-[…]-3′ (SEQ ID NO: 32), 420-474; 5′-[…]-3′ (SEQ ID NO: 33), 420-464; and 5′-[…]-3′ (SEQ ID NO: 34), 420-454) were used, and BamH1 (5′-[…]-3′ (SEQ ID NO: 35)) and Xho1 (5′-[…]-3′ (SEQ ID NO: 36)) were used for preparing His-PH. The proteins were expressed in Escherichia coli BL21, and purified with glutathione-Sepharose 4B resin and Ni2+-NTA-agarose.
GST and His-fused proteins (1.5 mg/ml:1.5 mg/ml) were incubated for 2 h at 4° C., immobilized on Ni^2+-NTA resin or glutathione-Sepharose 4B beads, and incubated for 30 min. Proteins were then eluted with elution buffer (25 mM NaPi, 300 mM NaCl, 5 mM β-mercaptoethanol, 500 mM imidazole, pH 7.5), western blot was performed with anti-GST and His antibodies.
Far-western analysis was performed as previously described (Wu et al., 2007). Briefly, purified GST-tagged proteins (1 μg) were loaded and separated, and then transferred to PVDF membranes. The membranes were denatured and renatured, incubated with purified His-tagged PH domain proteins (10 μg), and then detected with anti-His antibody.

The mark [1] stands for this setting: subcutaneous injection, 5 μg/P3.5 mouse, after 2 days.

Where no end group is shown, it is not given here.

Take “5′-UUGUACAAAAGAUCUCGCUGA-3′ (SEQ ID NO: 28) [AMIGO2-specific siRNA]”: the “Akt phosphorylation in hyaloid vessels and retinas” value with AMIGO2 (Amigo2-depleted mice) was “decreased”. Besides, the “expression of AMIGO2 in vivo” value with AMIGO2 (subcutaneous injection, 5 μg/P3.5 mouse) is reported as “decreased”. For the same molecule, in the test on AMIGO2 (setting [1]), the hyaloid vessel structure entry is reported as “significant decreases”; the “retinal vessel growth and vascular areas” value is listed as “reduced”.

For the molecule “420-474: purified GST-tagged truncated mutant of the AMIGO2 cytosolic domain, residues 420-474 (TPCPCKCKTKRQKNMLHQSNAHSSILSPGPASDASADERKAGAGKRVVFLEPLKD; cysteine pairing not given here; also: GST-tagged)”, the “direct interaction with purified His-PDK1 PH” value (“direct interaction” below) with PH domain of PDK1 is recorded as “directly interacted”.

B1: GST-tagged AMIGO2^CD: purified GST-tagged cytosolic domain of AMIGO2 (420-522aa) (protein)
chain: TPCPCKCKTKRQKNMLHQSNAHSSILSPGPASDASADERKAGAGKRVVFLEPLKDTAAGQNGKVRLFPSEAVIAEGILKSTRGKSDSDSVNSVFSDTPFVAST
modifications: left off: a dimerising Fc or GST
With B1, the “direct interaction” value in the test with PH domain of PDK1 was “directly interacted”.

B2: 420-484: purified GST-tagged truncated mutant of the AMIGO2 cytosolic domain, residues 420-484 (protein)
chain: TPCPCKCKTKRQKNMLHQSNAHSSILSPGPASDASADERKAGAGKRVVFLEPLKDTAAGQNGKVR
modifications: also: GST-tagged
As for B2, the “direct interaction” value with PH domain of PDK1 was “directly interacted”.
